Patent publication US12441706B2, “Protein degradation agent compound preparation method and application” (SHANGHAI JEMINCARE PHARMACEUTICALS CO., LTD., priority 2019, dated 2025)

Experiments:
[1] = In vivo pharmacokinetics in mice, intravenous injection and oral administration; design: species or system mouse; conditions: male CD1 mice
Experimental: In this experimental example, in vivo pharmacokinetics in mice were evaluated by intravenous injection and oral administration.
Experimental methods and conditions: Male CD1 mice, aged 6-8 weeks, all animals were free access to food and water, and were given a single dose of the compound to be tested at 1 mg/Kg by intravenous injection (solvent 5% DMSO/15% Solutol/80% Saline), at 5 min, 15 min, 30 min, 1 hr, 2 hr, 4 hr, 8 hr, 24 hr, 48 h after drug administration, or oral gavage administration of 10 mg/kg (solvent 5% DMSO/10% Solutol/85% Saline), at 15 min, 30 min, 1 hr, 2 hr, 4 hr, 6 h, 8 hr, 24 hr, 48 h after administration, blood was collected from the orbit, no less than 50 μL for each sample, heparin sodium was used for anticoagulation, and then placed on ice after collection, and centrifuged within 1 hour to separate the plasma for testing. The plasma concentration of the drug was detected by liquid tandem mass spectrometry (LC/MS/MS), and the pharmacokinetic parameters were calculated by Phoenix WinNonlin software.

[2] = test system: human prostate cancer VCaP cell subcutaneous xenograft tumor; experiment: In vivo pharmacodynamic study, human prostate cancer VCaP cell subcutaneous xenograft tumor CB17 SCID mouse model; conditions: for tumor growth inhibition rate (TGI): castrated CB17 SCID mice, 24th day after administration
Experimental: Experimental animal: male mice of CB17 SCID strain, aged 6-8 weeks, weighing 18-22 grams, supplier: Beijing Weitong Lihua Laboratory Animal Technology Co., Ltd. Shanghai Branch, animal certificate number: 20170011005577. Animals were reared in the experimental environment for 7 days after arrival and the experiment was started.
Experimental method: Human prostate cancer cell VCaP cells (ATCC-CRL-2876) were cultured in vitro in monolayer, and the culture conditions were DMEM medium with 20% fetal bovine serum, 100 U/mL penicillin and 100 μg/mL streptomycin, cultured in a 5% CO2 incubator at 37° C. Conventional digestion with trypsin-EDTA was performed twice a week for passage. When the cell saturation was 80%-90% and the number reached the requirement, the cells were collected, counted, and inoculated. 0.2 mL (10× 10^6 cells+Matrigel) VCaP cells were subcutaneously inoculated into the left upper limb of each mouse, and castration was performed 33 days after cell inoculation. When the average tumor volume reached 119 mm^3, the drugs were administered in groups, and the doses of compound 14 were set to four groups: 1 mg/kg, 3 mg/kg, 10 mg/kg and 30 mg/kg.
Daily observation of experimental animals: the health status and death of animals were monitored every day. Routine examinations included observing the effects of tumor growth and drug treatment on the daily behavior of animals, such as behavioral activities, food and water intake (visual observation only), and weight changes (body weight measured three times a week), physical signs or other abnormal conditions.
Tumor measurements and experimental indicators: Experimental indicators were to examine whether tumor growth was inhibited, delayed or cured. Tumor diameters were measured with vernier calipers three times a week.
The calculation formula of tumor volume is: V=0.5a×b2, where a and b represented the long diameter and short diameter of the tumor, respectively. The antitumor effect of the compound was evaluated by TGI (%) or relative tumor proliferation rate T/C (%). TGI (%), reflecting the tumor growth inhibition rate. Calculation of TGI (%): TGI (%)=[1−(average tumor volume at the end of administration of a certain treatment group−average tumor volume at the beginning of administration of the treatment group)/(average tumor volume at the end of treatment in the vehicle control group−average tumor volume at the beginning of treatment in the vehicle control group)]×100%. Relative tumor proliferation rate T/C (%): the calculation formula is as follows: T/C %=TRTV/CRTV×100% (TRTV: RTV in the treatment group; CRTV: RTV in the negative control group). The relative tumor volume (RTV) was calculated according to the results of tumor measurement, and the formula is RTV=Vt/V0, where V0 is the average tumor volume measured at the time of group administration (i.e. d0), and Vt is the average tumor volume at a certain measurement, and TRTV and CRTV were taken on the same day. After the experiment, the tumor weight would be detected, and the percentage of T/Cweight would be calculated. Tweight and Cweight represent the tumor weight of the administration group and the vehicle control group, respectively.
Statistical analysis: Statistical analysis included the mean and standard error (SEM) of tumor volume at each time point for each group. […] T-test was used for comparison between two groups, and one-way ANOVA was used for comparison between three or more groups. […]

VCap cells = experiment: Inhibition of proliferation of VCap cells (Cell Titer Glo, 6 days); format: cell-based; conditions: Homo sapiens, VCaP, 144 h
Experimental: Tumor cell line VCap FGC (ATCC catalog number CRL-2876) was cultured in DMEM (Gibco catalog number 11965-092) medium containing 10% FBS (Gibco catalog number 10099-141C), respectively. During the determination, Vcap cells were replaced with DMEM medium containing 5% FBS and 0.1 nM R1881 (Sigma catalog number R0908).
Vcap FGC cells were inoculated in a 384-well plate (Perkin Elmer catalog number 6007460) at a cell density of 1200 cells/well in a volume of 20 μL/well and incubated overnight in a carbon dioxide incubator (Thermo). The prepared compound solutions of different concentrations were added in a volume of 5 μL/well. The corresponding vehicle control was set at the same time. After being cultured in the incubator for 6 days, the cell plate and the contents were equilibrated to room temperature, and 25 μL of Cell Titer Glor (Promega catalog number G7573) was added to each well, shake and mix well, incubated in dark for 10-30 minutes, and the signal values were detected though Envision microplate reader (PerkinElmer).
The percentage inhibition rate of compound-treated wells was calculated from vehicle control wells on the plate, and the percentage inhibition rate data corresponding to different concentrations were fitted by GraphPad prism, and the IC50 values were calculated by 4-parameter nonlinear logic formula.

[3] = mouse, intravenous administration 1 mg/kg, plasma
[4] = mouse, oral administration 10 mg/kg, plasma

`CC1(C)C(=O)N(c2ccc(C#N)c(Cl)c2)c2ccc(-c3ccc(N4CC(CN5CCN(c6ccc7c(c6)C(=O)N(C6CCC(=O)NC6=O)C7=O)CC5)C4)nc3F)cc21` (stereo not drawn) [Compound 14] showed an F ([1]; oral administration 10 mg/kg vs intravenous 1 mg/kg) of 68.6%, an AUC(0-inf) [1, 3] of 10400 ng·h/mL and a clearance [1, 3] of 1.61 mL/min/kg. It also gave a half-life [1, 3] of 20.4 h, an AUC(0-inf) [1, 4] of 71100 ng·h/mL and a Cmax [1, 4] of 2650 ng/mL. The half-life [1, 4] was 17.8 h, the “tolerance (body weight, FIG. 2)” value ([2]; 10 mpk and 30 mpk, CB17 SCID mice) was “better tolerance than Reference substance 1” and the “tumor growth inhibition rate (TGI)” value ([2]; dose 10 mpk) was 96%. For the same compound, the “tumor growth inhibition rate (TGI)” value ([2]; dose 30 mpk) was 96%, the Emax (VCap cells) was 94% and the IC50 (VCap cells) was 67 nM.
